From patent EP0930296A1, “FLUORINATED PROSTAGLANDIN DERIVATIVES AND MEDICINES” (ASAHI GLASS COMPANY LTD., priority 1996, dated 1998)

Tests used:
crab-eating macaques = assay: Effects on intraocular pressure (air-puff applanation tonometer, ketamine anesthesia); format: in vivo; conditions: for Change in ocular pressure after application: average of 8 subjects, relative to initial intraocular pressure
Description: The effect of a compound of the present invention on intraocular pressure was studied in accordance with the method disclosed in a report of a study on the effect of the tromethamine salt and the isopropyl ester of PGF2α on intraocular pressure in crab-eating macaques (Exp. Eye Res., 61, 677-683 (1995)).
Male crab-eating macaques weighing from 5 to 7.5 kg (5-10 years old) were used in the test. The intraocular pressures were measured just before and 2, 4 and 6 hours after application of the test compound under ketamine anesthasia (5-10 mg/kg, intramuscular administration) by means of an air-puff applanation tonometer.
The results of application of 0.1% (w/v) ophthalmic solution containing Latanoprost (reference pharmaceutical 1), which is known as a therapeutic agent for glaucoma are also shown in Table 1.

Japanese white rabbits = assay: Test on eye irritations: conditions of the front of the eye, scores by improved Draize method; format: in vivo; conditions: for scored in total, as much as Latanoprost did: ratio of total scores, Table 2 to Table 3; for Condition of nictitating membrane / Edema of eyelid conjunctiva / Iridial congestion / Opacity of the cornea / Opaque fraction of the cornea / Rubor of eyelid conjunctiva / Rubor of supraocular conjunctiva / Secretions / Total score: ten times at 30 minute intervals; for Total score: sum of the scores
Description: The eye irritation caused by a compound of the present invention was investigated in accordance with the method of Fukui et al. ("[…]-no-rinsho", 4277-89 (1970)). Male Japanese white rabbits weighing about 2.5 kg were used in the test. A test compound was applied into the conjunctival sac of a right eye ten times at 30 minute intervals. The conditions of the front and the anterior chamber of the eye were observed just before and 1, 2 and 4 hours after the final application, and the damage to the cornea was observed 4 hours after the final application. Into the conjunctival sac of a left eye, the base only, which was free from the test compound, was applied. A) Conditions of the front of the eye: Scores were determined on the basis of the following scale of damage to the eye according to the improved Draize method. • a) Opacity • No cloud (normal); 0 • Scattered clouds in pervasive regions (the details of the iris are clearly visible); 1 • Easily distinguishable translucent regions (details of the iris are not visible so clearly); 2 • Opaque regions, details of the iris are invisible, and the size of the pupil is barely recognizable; 3 • Unclear, the iris is invisible; 4 • b) The size of the region of the cornea falling into the above • None; 0 • More than 0 and not more than 1/4; 1 • More than 1/4 and less than 1/2; 2 • More than 1/2 and less than 3/4; 3 • More than 3/4 and all over; 4 • Normal; 0 • More […], stasis, swelling, congestion around the cornea than normal (any or combinations of them), the iris is still responsive to light (positive for slow reaction); 1 • Irresponsible to light, and bleeding and apparent destruction (any or all of them); 2 • a) Rubor of the eyelid conjunctiva • No congestion; 0 • Slightly reddish mucosae and slight but recognizable vasodilation of the edge of the eyelid; 0.5 • Clearly abnormal congestion, appreciably red mucosae and remarkable swelling; 1 • Pretty remarkably red ocular mucosae and slightly unclear peripheral vessels; 2 • More intense conditions than 2 and pervasive beef-like rubor; 3 • b) Edema of the eyelid conjunctiva • Not swollen; 0 • Slight tendency of edema; 0.5 • More swollen than normal; 1 • Apparently swollen together with part of the integument of the eyelid; 2 • Swollen with about half of the eyelid sagging; 3 • Swollen with about half to all of the eyelid sagging; 4 • c) Rubor of the supraocular conjunctiva • No congestion; 0 • Slight vasodilation around the cornea; 0.5 • More remarkable vasodilation; 1 • Remarkable vasodilation toward the edge of the eyelid or remarkable rubor; 2 • d) Condition of the nictitating membrane • No congestion; 0 • Recognizable vasodilation and tendency of edema; 0.5 • More appreciable vasodilation and rubor of the edge of the eyelid; 1 • Extreme vasodilation and remarkable rubor of the entire nictitating membrane; 2 • e) Secretions • No secretions; 0 • A certain amount more than normal (exclusive of small amount of secretions found at the medial angle of the eye of a normal animal); 1 • Some secretions with a wet eyelid and neighboring fur; 2 • Some secretions with a wet eyelid and a large area of wet fur around the eye; 3 • B) Conditions of the anterior chamber: After the observation of the front of the eye, the inside of the anterior chamber was checked for flares under a slit lamp. • C) Damage to the cornea: After observation of the conditions of the front and anterior chamber of the eye 4 hours after the final application, the cornea was stained with fluorescein, and the remaining dye on the cornea was observed under a slit lamp. […] Further, to comprehensively evaluate damage to the front of the eye, the sum of the scores was calculated as a total score.

[1] = system: smooth muscle in the respiratory system; conditions: Izv. Akad. Nauk SSSR, Ser. Biol., 6, 831 (1989); cited from earlier work
[2] = system: smooth muscle in the digestive and circulatory systems; conditions: Izv. Akad. Nauk SSSR, Ser. Biol., 6, 831 (1989); cited from earlier work
[3] = 2 hours, 20 µℓ of 0.1% (w/v) ophthalmic solution
[4] = 4 hours, 20 µℓ of 0.1% (w/v) ophthalmic solution
[5] = 6 hours, 20 µℓ of 0.1% (w/v) ophthalmic solution
[6] = After 1 hr, 0.01% (w/v) ophthalmic solution (pharmaceutical 3), 50 µℓ, average of three subjects
[7] = After 2 hrs, 0.01% (w/v) ophthalmic solution (pharmaceutical 3), 50 µℓ, average of three subjects
[8] = After 4 hrs, 0.01% (w/v) ophthalmic solution (pharmaceutical 3), 50 µℓ, average of three subjects
[9] = After 1 hr, 0.1% (w/v) ophthalmic solution (reference pharmaceutical 1)
[10] = After 2 hrs, 0.1% (w/v) ophthalmic solution (reference pharmaceutical 1)
[11] = After 4 hrs, 0.1% (w/v) ophthalmic solution (reference pharmaceutical 1)

SMILES: CC(C)OC(=O)CCC/C=C\C[C@@H]1[C@@H](/C=C/C(F)COc2cc(Cl)cc(Cl)c2)[C@H](O)C[C@@H]1O (single isomer, unassigned) [Compound A, 16-(3,5-dichlorophenoxy)-15-deoxy-15-fluoro-17,18,19,20-tetranorprostaglandin F2α isopropyl ester]
- Change in ocular pressure after application (crab-eating macaques; 2 hours, 20 µℓ of 0.01% (w/v) ophthalmic solution): -0.8 mmHg
- Change in ocular pressure after application (crab-eating macaques; [3]): -1.0 mmHg
- Change in ocular pressure after application (crab-eating macaques; 4 hours, 20 µℓ of 0.01% (w/v) ophthalmic solution): -1.8 mmHg
- Change in ocular pressure after application (crab-eating macaques; [4]): -1.4 mmHg
- lowered the intraocular pressure, times as much as Latanoprost (crab-eating macaques; 6 hours after application): about 1.5 times
- Change in ocular pressure after application (crab-eating macaques; 6 hours, 20 µℓ of 0.01% (w/v) ophthalmic solution): -3.0 mmHg
- Change in ocular pressure after application (crab-eating macaques; [5]): -3.6 mmHg
- scored in total, as much as Latanoprost did (Japanese white rabbits; 1 hour after application): about 1/5
- scored in total, as much as Latanoprost did (Japanese white rabbits; 2 hours after application): 1/2
- scored in total, as much as Latanoprost did (Japanese white rabbits; 4 hours after application): 1/3
- Condition of nictitating membrane (Japanese white rabbits; [6]): 0.2
- Edema of eyelid conjunctiva (Japanese white rabbits; [6]): 0
- Iridial congestion (Japanese white rabbits; [6]): 0
- Opacity of the cornea (Japanese white rabbits; [6]): 0
- Opaque fraction of the cornea (Japanese white rabbits; [6]): 0
- Rubor of eyelid conjunctiva (Japanese white rabbits; [6]): 0
- Rubor of supraocular conjunctiva (Japanese white rabbits; [6]): 0.2
- Secretions (Japanese white rabbits; [6]): 0
- Condition of nictitating membrane (Japanese white rabbits; [7]): 0.2
- Edema of eyelid conjunctiva (Japanese white rabbits; [7]): 0
- Iridial congestion (Japanese white rabbits; [7]): 0
- Opacity of the cornea (Japanese white rabbits; [7]): 0
- Opaque fraction of the cornea (Japanese white rabbits; [7]): 0
- Rubor of eyelid conjunctiva (Japanese white rabbits; [7]): 0.2
- Rubor of supraocular conjunctiva (Japanese white rabbits; [7]): 0.5
- Secretions (Japanese white rabbits; [7]): 0
- Condition of nictitating membrane (Japanese white rabbits; [8]): 0
- Edema of eyelid conjunctiva (Japanese white rabbits; [8]): 0
- Iridial congestion (Japanese white rabbits; [8]): 0
- Opacity of the cornea (Japanese white rabbits; [8]): 0
- Opaque fraction of the cornea (Japanese white rabbits; [8]): 0
- Rubor of eyelid conjunctiva (Japanese white rabbits; [8]): 0
- Rubor of supraocular conjunctiva (Japanese white rabbits; [8]): 0.2
- Secretions (Japanese white rabbits; [8]): 0
- Total score (Japanese white rabbits; After 1 hr, 0.01% (w/v) ophthalmic solution (pharmaceutical 3), 50 µℓ): 0.4
- Total score (Japanese white rabbits; After 2 hrs, 0.01% (w/v) ophthalmic solution (pharmaceutical 3), 50 µℓ): 0.9
- Total score (Japanese white rabbits; After 4 hrs, 0.01% (w/v) ophthalmic solution (pharmaceutical 3), 50 µℓ): 0.2
- irritation of the front of the eye (Japanese white rabbits; when applied to the eye, slight congestion of the conjunctiva was observed): little irritant

SMILES: CC(C)OC(=O)CCC/C=C\C[C@@H]1[C@@H](CC[C@@H](O)CCc2ccccc2)[C@H](O)C[C@@H]1O [Latanoprost, 13,14-dihydro-17-phenyl-18,19,20-trinor PGF2α isopropyl ester, reference compound]
- Change in ocular pressure after application (crab-eating macaques; [3]): -0.6 mmHg
- Change in ocular pressure after application (crab-eating macaques; [4]): -2.6 mmHg
- Change in ocular pressure after application (crab-eating macaques; [5]): -2.3 mmHg
- Condition of nictitating membrane (Japanese white rabbits; [9]): 0.3
- Edema of eyelid conjunctiva (Japanese white rabbits; [9]): 0
- Iridial congestion (Japanese white rabbits; [9]): 0
- Opacity of the cornea (Japanese white rabbits; [9]): 0
- Opaque fraction of the cornea (Japanese white rabbits; [9]): 0
- Rubor of eyelid conjunctiva (Japanese white rabbits; [9]): 0.5
- Rubor of supraocular conjunctiva (Japanese white rabbits; [9]): 0.8
- Secretions (Japanese white rabbits; [9]): 0.3
- Condition of nictitating membrane (Japanese white rabbits; [10]): 0.3
- Edema of eyelid conjunctiva (Japanese white rabbits; [10]): 0
- Iridial congestion (Japanese white rabbits; [10]): 0
- Opacity of the cornea (Japanese white rabbits; [10]): 0
- Opaque fraction of the cornea (Japanese white rabbits; [10]): 0
- Rubor of eyelid conjunctiva (Japanese white rabbits; [10]): 0.5
- Rubor of supraocular conjunctiva (Japanese white rabbits; [10]): 0.8
- Secretions (Japanese white rabbits; [10]): 0
- Condition of nictitating membrane (Japanese white rabbits; [11]): 0.3
- Edema of eyelid conjunctiva (Japanese white rabbits; [11]): 0
- Iridial congestion (Japanese white rabbits; [11]): 0
- Opacity of the cornea (Japanese white rabbits; [11]): 0
- Opaque fraction of the cornea (Japanese white rabbits; [11]): 0
- Rubor of eyelid conjunctiva (Japanese white rabbits; [11]): 0
- Rubor of supraocular conjunctiva (Japanese white rabbits; [11]): 0.3
- Secretions (Japanese white rabbits; [11]): 0
- Total score (Japanese white rabbits; [9]): 1.9
- Total score (Japanese white rabbits; [10]): 1.6
- Total score (Japanese white rabbits; [11]): 0.6

SMILES: CCCCCC(F)/C=C/[C@@H]1[C@@H](C/C=C\CCCC(=O)O)[C@@H](O)C[C@H]1O (stereo partly drawn) [15-Fluoro-15-deoxy PGF2α, 15-fluoro-15-deoxy PGF2α]
- contraction action on smooth muscle in the respiratory system as compared with the naturally occurring PGF2α [1]: 100 fold
- relaxation action on smooth muscle in the respiratory system as compared with the naturally occurring PGF2α [1]: 1000 fold
- action on the smooth muscle in the digestive and circulatory systems relative to the naturally occurring PGF2α [2]: comparable
